The results in this text go back to publication PMC7106779 (2017).

“Also recorded” adds a separate entry of the source.

The series has as its system Sap9. The experiment in a line: purified recombinant Sap9. Particulars: C. albicans, 37 °C, up to 2 h.
Take DSHAKRHHGYKRKFHEKHHSHRGY: the cleaved bond result was “K17-H18; also recorded: R12-K13; also recorded: K13-F14; also recorded: H18-H19”. Regarding DSHAKRHHGYKRRFHEKHHSHRGY, the fragment found entry is reported as “amino acids 1–17; also recorded: amino acids 18–24”. Same read-out and setting: under DSHAKRHHGYLRKFHEKHHSHRGY stands “amino acids 1–17; also recorded: amino acids 18–24”. For DSHAKRHHGYRRKFHEKHHSHRGY, the fragment found entry is recorded as “amino acids 1–17; also recorded: amino acids 18–24”.

Turning to DSHALRHHGYKRKFHEKHHSHRGY, the fragment found result is recorded as “amino acids 1–17; also recorded: amino acids 18–24”.

On to DSHARRHHGYKRKFHEKHHSHRGY, for which the fragment found result is on record as “amino acids 1–17; also recorded: amino acids 18–24”.
